Measured values published in PubChem BioAssay (NCI).
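All cell lines were grown in 96-well plates and treated with compound for 48 hours. At the GI50, growth is halved. TGI marks complete inhibition of growth.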

Assays:
Assay in all cases: NCI-60 cell line screen, 48 h
[1] = system: NCI-H23 lung
[2] = system: NCI-H460 lung
[3] = system: NCI-H522 lung
[4] = system: NCI/ADR-RES ovarian
[5] = system: OVCAR-3 ovarian
[6] = system: OVCAR-4 ovarian
[7] = system: OVCAR-5 ovarian
[8] = system: OVCAR-8 ovarian
[9] = system: PC-3 prostate
[10] = system: RPMI-8226 leukemia
[11] = system: RXF 393 renal
[12] = system: SF-268 CNS
[13] = system: SF-295 CNS
[14] = system: SF-539 CNS
[15] = system: SK-MEL-2 melanoma
[16] = system: SK-MEL-28 melanoma
[17] = system: SK-MEL-5 melanoma
[18] = system: SK-OV-3 ovarian
[19] = system: SN12C renal
[20] = system: SNB-19 CNS
[21] = system: SNB-75 CNS
[22] = system: SR leukemia
[23] = system: SW-620 colon
[24] = system: T-47D breast
[25] = system: TK-10 renal
[26] = system: U251 CNS
[27] = system: UACC-257 melanoma
[28] = system: UACC-62 melanoma
[29] = system: UO-31 renal

CCN1CCN(c2nc(NNC(=O)c3ccccc3)nc(N3CCN(C(c4ccccc4)c4ccccc4)CC3)n2)CC1 was tested, and the GI50 [1] was 3.17 µM, the TGI [1] was 11.1 µM and the GI50 [2] was 2.1 µM. The TGI [2] was 4.63 µM, the GI50 [3] was 2.69 µM and the TGI [3] was 7.65 µM. For the same compound, the GI50 [4] was 3.32 µM, the TGI [4] was 14.3 µM and the GI50 [5] was 3.43 µM. For the same compound, the TGI [5] was 13.2 µM, the GI50 [6] was 5.39 µM and the TGI [6] was 26.1 µM. For the same compound, the GI50 [7] was 6.03 µM, the TGI [7] was 21.4 µM and the GI50 [8] was 3.58 µM. For the same compound, the TGI [8] was 19.5 µM, the GI50 [9] was 1.9 µM and the TGI [9] was 7.57 µM. It also gave a GI50 [10] of 1.65 µM, a TGI [10] of 4.1 µM and a GI50 [11] of 2.56 µM. For the same compound, the TGI [11] was 7.57 µM, the GI50 [12] was 11.6 µM and the TGI [12] was 32.7 µM. It also gave a GI50 [13] of 4.58 µM, a TGI [13] of 16.3 µM and a GI50 [14] of 1.84 µM. For the same compound, the TGI [14] was 3.45 µM, the GI50 [15] was 2.4 µM and the TGI [15] was 5.67 µM. For the same compound, the GI50 [16] was 1.8 µM, the TGI [16] was 3.49 µM and the GI50 [17] was 1.73 µM. The TGI [17] was 3.14 µM, the GI50 [18] was 5.93 µM and the TGI [18] was 22.1 µM. For the same compound, the GI50 [19] was 2.89 µM, the TGI [19] was 8.97 µM and the GI50 [20] was 4.28 µM. The TGI [20] was 17.8 µM, the GI50 [21] was 3.96 µM and the TGI [21] was 18.1 µM. It also gave a GI50 [22] of 1.78 µM, a TGI [22] of 4.69 µM and a GI50 [23] of 2.3 µM. For the same compound, the TGI [23] was 5.88 µM, the GI50 [24] was 3.16 µM and the TGI [24] was 31.2 µM. The GI50 [25] was 3.31 µM, the TGI [25] was 11.4 µM and the GI50 [26] was 3.05 µM. For the same compound, the TGI [26] was 10.5 µM, the GI50 [27] was 1.9 µM and the TGI [27] was 4.25 µM. It also gave a GI50 [28] of 1.96 µM, a TGI [28] of 4.29 µM and a GI50 [29] of 1.52 µM. For the same compound, the TGI [29] was 3.25 µM.
